According to ChEMBL document CHEMBL5393444, “Sulfonamide derivatives as ctps1 inhibitors” (2022):

Tests used:
CTP synthase 1 = target: T1, CTP synthase 1 (Homo sapiens, UniProt P17812); experiment: Inhibition of C-terminal FLAG-His8-tagged full length human CTPS1 preincubated for 10 mins followed by substrate addition by ADP-Glo assay
T1 sequence (P17812 whole entry): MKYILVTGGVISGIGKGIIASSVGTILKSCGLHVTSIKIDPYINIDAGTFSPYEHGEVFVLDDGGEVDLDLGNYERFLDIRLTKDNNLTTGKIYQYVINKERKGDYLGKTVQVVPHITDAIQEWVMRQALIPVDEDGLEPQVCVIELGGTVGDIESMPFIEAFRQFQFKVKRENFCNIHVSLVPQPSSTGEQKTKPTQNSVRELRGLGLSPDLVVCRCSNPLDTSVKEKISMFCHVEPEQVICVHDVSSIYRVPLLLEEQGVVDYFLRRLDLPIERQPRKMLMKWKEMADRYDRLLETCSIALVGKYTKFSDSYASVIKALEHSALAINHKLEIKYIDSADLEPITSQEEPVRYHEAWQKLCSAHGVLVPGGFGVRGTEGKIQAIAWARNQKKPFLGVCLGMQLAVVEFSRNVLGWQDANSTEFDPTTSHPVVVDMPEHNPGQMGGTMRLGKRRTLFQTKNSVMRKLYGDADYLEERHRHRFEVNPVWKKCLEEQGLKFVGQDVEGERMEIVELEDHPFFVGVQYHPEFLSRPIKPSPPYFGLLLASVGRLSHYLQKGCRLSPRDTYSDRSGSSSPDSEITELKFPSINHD

Homo sapiens = organism: Homo sapiens; experiment: Selectivity ratio of IC50 for human CTPS2 to IC50 for human CTPS1 by RapidFire/MS analysis

| SMILES | IC50 (CTP synthase 1) [nM] | Ratio IC50 (Homo sapiens) |
| --- | --- | --- |
| CCOc1cncc(-c2ccc(NC(=O)C(C)(C)c3ccnc(NS(=O)(=O)C4CC4)n3)c(F)c2)n1 | ≤ 100 | 2 |
| CCC(C(=O)Nc1ccc(-c2cncc(C(F)(F)F)n2)cn1)c1ccnc(NS(=O)(=O)C2CC2)n1 (stereo not given) | ≤ 100 | 30 |
| CCOc1cncc(-c2ccc(C(=O)NCc3ccnc(NS(=O)(=O)C4CC4)n3)cc2)n1 | ≤ 100 | > 60 |
| CCOc1cncc(-c2ccc(NC(=O)Cc3ccnc(NS(=O)(=O)C4CC4)n3)cc2)n1 | ≤ 100 | 30 |
| CC(C)Oc1cncc(-c2ccc(NC(=O)C(C)(C)c3ccnc(NS(=O)(=O)C4CC4)n3)nc2)n1 | ≤ 100 | > 60 |
| CCOc1cncc(-c2ccc(NC(=O)C3(c4ccnc(NS(=O)(=O)C5CC5)n4)CCCC3)nc2)n1 | ≤ 100 | > 60 |
| CCOc1cncc(-c2ccc(NC(=O)C(CC)c3cncc(NS(=O)(=O)C4CC4)n3)nc2)n1 (stereo not given) | ≤ 100 | > 60 |
| CCOc1cncc(-c2cnc(NC(=O)C(CC)c3ccnc(NS(=O)(=O)C4CC4)n3)c(C)c2)n1 (stereo not given) | ≤ 100 | 2 |
| CCOc1cncc(-c2ccc(NC(=O)C(CC)c3ccnc(NS(=O)(=O)C4CC4)n3)nc2)n1 (stereo not given) | ≤ 100 | > 60 |
| CCOc1cncc(-c2ccc(NC(=O)C3(c4ccnc(NS(=O)(=O)C5CC5)n4)CCCC3)cc2)n1 | ≤ 100 | > 60 |
| CCC(C(=O)Nc1ccc(-c2cncc(OC(C)C)n2)cn1)c1ccnc(NS(=O)(=O)C2CC2)n1 (stereo not given) | ≤ 100 | > 60 |
| CCOc1cncc(-c2ccc(NC(=O)C(CC)c3ccnc(NS(=O)(=O)C4CC4)n3)c(F)c2)n1 (stereo not given) | ≤ 100 | 2 |
| CC(C)Oc1cncc(-c2ccc(NC(=O)Cc3ccnc(NS(=O)(=O)C4CC4)n3)cc2)n1 | ≤ 100 | 30 |
| CCOc1cncc(-c2ccc(NC(=O)C(CC)c3ccnc(NS(=O)(=O)C4CC4)n3)cc2)n1 (stereo not given) | ≤ 100 | 30 |
| CCOc1cncc(-c2ccc(NC(=O)C3(c4cncc(NS(=O)(=O)C5CC5)n4)CCOCC3)nc2)n1 | ≤ 100 | > 60 |
| CCOc1cncc(-c2ccc(NC(=O)C(C)(C)c3ccnc(NS(=O)(=O)CC)n3)cc2)n1 |  | 30 |
| CCOc1cncc(-c2ccc(NC(=O)C(F)(CC)c3ccnc(NS(C)(=O)=O)n3)nc2)n1 (stereo not given) | ≤ 100 | > 60 |
| CCC(C(=O)Nc1ccc(-c2cncc(OCC(F)(F)F)n2)cc1)c1ccnc(NS(=O)(=O)C2CC2)n1 (stereo not given) | ≤ 100 | > 60 |
| CCOc1cncc(-c2ccc(NC(=O)C3(c4ccnc(NS(=O)(=O)C5CC5)n4)CCC(N(C)C)CC3)nc2)n1 (stereo in doubt; form 2) |  | > 60 |
| CCC(C(=O)Nc1ccc(-c2cncc(OC)n2)cc1F)c1ccnc(NS(=O)(=O)C2CC2)n1 (stereo not given) | ≤ 100 | 2 |
| CCOc1cncc(-c2ccc(NC(=O)C(C)(CCOC)c3cncc(NS(=O)(=O)C4CC4)n3)nc2)n1 (stereo not given) | ≤ 100 | > 60 |
| CC(C)Oc1cncc(-c2ccc(NC(=O)C(C)(C)c3ccnc(NS(=O)(=O)C4CC4)n3)c(F)c2)n1 | ≤ 100 | 2 |
| CCOc1cncc(-c2ccc(NC(=O)C(CCOC)c3ccnc(NS(=O)(=O)C4CC4)n3)c(F)c2)n1 (stereo not given) | ≤ 100 | > 60 |
| CCOc1cncc(-c2ccc(C(=O)NC(CC)c3ccnc(NS(=O)(=O)C4CC4)n3)c(F)c2)n1 (stereo not given) | ≤ 100 | > 60 |
| CCOc1cncc(-c2ccc(NC(=O)C3(c4ccnc(NS(=O)(=O)C5CC5)n4)CCC(F)(F)CC3)nc2)n1 | ≤ 100 | > 60 |
| CCOc1cncc(-c2ccc(NC(=O)C(C)(C)c3cncc(NS(=O)(=O)C4CC4)n3)nc2)n1 | ≤ 100 | > 60 |
| O=C(Cc1ccnc(NS(=O)(=O)C2CC2)n1)Nc1ccc(-c2cccnc2)cc1 |  | 30 |
| CCOc1cncc(-c2ccc(NC(=O)C3(c4ccnc(NS(=O)(=O)C5CC5)n4)CCN(S(C)(=O)=O)CC3)nc2)n1 | ≤ 100 | > 60 |

| SMILES | IC50 (CTP synthase 1) [nM] | Ratio IC50 (Homo sapiens) |
| --- | --- | --- |
| CCOc1cncc(-c2ccc(NC(=O)C3(c4ccnc(NS(=O)(=O)C5CC5)n4)CCC(O)CC3)nc2)n1 (single isomer, unassigned) |  | 2 |
| CC(C)(NC(=O)c1ccc(-c2cncc(C(F)(F)F)n2)cc1)c1cncc(NS(=O)(=O)C2CC2)n1 |  | 2 |
| CCOc1cncc(-c2ccc(NC(=O)C(C)(C)c3ccnc(NS(=O)(=O)C4CC4)n3)nc2)n1 | ≤ 100 | > 60 |
| CCOc1cncc(-c2ccc(NC(=O)C(CCOC)c3ccnc(NS(=O)(=O)C4CC4)n3)nc2)n1 (stereo not given) | ≤ 100 | > 60 |
| CCOc1cncc(-c2ccc(NC(=O)C3(c4ccnc(NS(=O)(=O)CC#N)n4)CCOCC3)nc2)n1 | ≤ 100 | > 60 |
| CCOc1cncc(-c2cnc(NC(=O)C(CC)c3ccnc(NS(=O)(=O)C4CC4)n3)c(F)c2)n1 (stereo not given) | ≤ 100 | 30 |
| CCOc1cncc(-c2ccc(NC(=O)C(C)(C)c3ccnc(NS(=O)(=O)C4CC4)n3)cc2)n1 | ≤ 100 | 2 |
| CCOc1cncc(-c2ccc(NC(=O)C3(c4ccnc(NS(=O)(=O)C5CC5)n4)CCOCC3)nc2)n1 | ≤ 100 | > 60 |
| CCOc1cncc(-c2ccc(NC(=O)C3(c4ccnc(NS(=O)(=O)N(C)C)n4)CCOCC3)nc2)n1 |  | > 60 |
| CCOc1cncc(-c2ccc(NC(=O)C(C)(C)c3cncc(NS(=O)(=O)C4CC4)n3)cc2)n1 | ≤ 100 | > 60 |
| CCOc1cncc(-c2ccc(NC(=O)C(C)(C)c3nc(NS(=O)(=O)C4CC4)ncc3F)cc2)n1 |  | 30 |
| CCC(C(=O)Nc1ccc(-c2cncc(OCC(F)(F)F)n2)cc1F)c1ccnc(NS(=O)(=O)C2CC2)n1 (stereo not given) | ≤ 100 | > 60 |
| CCOc1cncc(-c2ccc(NC(=O)C(C)(C)c3ccnc(NS(=O)(=O)C4CC4)n3)c(C#N)c2)n1 | ≤ 100 | 2 |
| CCOc1cncc(-c2ccc(NC(=O)C(CCOC)c3ccnc(NS(=O)(=O)C4CC4)n3)cc2)n1 (stereo not given) | ≤ 100 | 30 |
| CCOc1cncc(-c2ccc(NC(=O)C(F)(CC)c3cncc(NS(=O)(=O)C4CC4)n3)nc2)n1 (stereo in doubt; form 2) |  | > 60 |
| CCOc1cncc(-c2ccc(NC(=O)C(F)(CC)c3ccnc(NS(=O)(=O)C4CC4)n3)nc2)n1 (stereo in doubt; form 1) |  | 30 |
| CC(C)(C(=O)Nc1ccc(-c2cncc(C3CC3)n2)cn1)c1ccnc(NS(=O)(=O)C2CC2)n1 |  | 30 |
| CC(C)Oc1cncc(-c2ccc(NC(=O)Cc3ccnc(NS(=O)(=O)C4CC4)n3)c(F)c2)n1 | ≤ 100 | 30 |
| CCOc1cncc(-c2ccc(NC(=O)C(F)(CC)c3ccnc(NS(=O)(=O)C4CC4)n3)nc2)n1 (stereo in doubt; form 3) |  | > 60 |
| CCC(C(=O)Nc1ncc(-c2cncc(OC)n2)cc1F)c1ccnc(NS(=O)(=O)C2CC2)n1 (stereo not given) |  | 2 |
| CCOc1cncc(-c2ccc(NC(=O)C3(c4ccnc(NS(=O)(=O)C5CC5)n4)CC3)cc2)n1 | ≤ 100 | > 60 |
| CCOc1cncc(-c2ccc(NC(=O)C(CC)c3cccc(NS(=O)(=O)C4CC4)n3)nc2)n1 (stereo not given) | ≤ 100 | 30 |
| CCC(C(=O)Nc1ccc(-c2cncc(OC)n2)cn1)c1ccnc(NS(=O)(=O)C2CC2)n1 (stereo not given) | ≤ 100 | > 60 |
| CCOc1cncc(-c2ccc(NC(=O)C(C)(CC)c3ccnc(NS(=O)(=O)C4CC4)n3)nc2)n1 (stereo not given) | ≤ 100 | > 60 |
| CCOc1cncc(-c2ccc(NC(=O)C(F)(CC)c3cncc(NS(=O)(=O)C4CC4)n3)nc2)n1 (stereo in doubt; form 1) |  | 30 |
| CCOc1cncc(-c2ccc(NC(=O)C(CC)c3cccc(NS(=O)(=O)C4CC4)n3)cc2)n1 (stereo not given) |  | 30 |
| CCOc1cncc(-c2ccc(NC(=O)C(C)(OC)c3cncc(NS(=O)(=O)C4CC4)n3)nc2)n1 (stereo in doubt; form 2) |  | 30 |
